Measured values: PubChem BioAssay (NCI)
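Cells were grown in 96-well plates and exposed to each compound for 48 hours at five concentrations; endpoints were interpolated linearly between bracketing concentrations, or set to the highest concentration if not reached. At the GI50, growth is halved. At the TGI there is no net growth.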

Tests used:
Test in all cases: NCI anticancer screen, dose series, 48 h; in the data active = GI50 below about 0.43 µM; inactive = the rest
786-0 renal = system: 786-0 renal
DU-145 prostate = system: DU-145 prostate
EKVX NSCLC = system: EKVX NSCLC
K-562 leukemia = system: K-562 leukemia
MALME-3M melanoma = system: MALME-3M melanoma
NCI-H23 lung = system: NCI-H23 lung
NCI-H522 lung = system: NCI-H522 lung
RXF 393 renal = system: RXF 393 renal
SW-620 colon = system: SW-620 colon
HS 578T breast = system: HS 578T breast

COc1ccc(C/C(C)=C(/c2ccc(OCCN3CCCCC3)cc2)c2ccc(OC(=O)NCc3ccccc3)cc2)cc1
0.674 µM: TGI (786-0 renal)
0.808 µM: TGI (SW-620 colon)
1.23 µM: TGI (K-562 leukemia)
inactive: GI50 (DU-145 prostate) 0.442 µM | GI50 (NCI-H522 lung) 0.49 µM | GI50 (RXF 393 renal) 0.435 µM
0.876 µM: TGI (RXF 393 renal)
active: GI50 (786-0 renal) 0.316 µM | GI50 (EKVX NSCLC) 0.37 µM | GI50 (K-562 leukemia) 0.301 µM | GI50 (MALME-3M melanoma) 0.395 µM | GI50 (NCI-H23 lung) 0.425 µM | GI50 (SW-620 colon) 0.419 µM
0.838 µM: TGI (NCI-H23 lung)
0.805 µM: TGI (DU-145 prostate)
0.776 µM: TGI (MALME-3M melanoma)
0.773 µM: TGI (EKVX NSCLC)
0.928 µM: TGI (NCI-H522 lung)

O=C1C=CC(=O)C2=C1[C@@H](O)C1CC=CC3C(=O)O[C@@H]2C31 (some centres undefined)
34.8 µM: TGI (NCI-H522 lung)
> 61.5 µM: TGI (K-562 leukemia)
> 68 µM: TGI (NCI-H23 lung)
> 55.2 µM: TGI (786-0 renal)
57 µM: TGI (SW-620 colon)
> 100 µM: TGI (EKVX NSCLC)
34.6 µM: TGI (MALME-3M melanoma)
33.9 µM: TGI (RXF 393 renal)

CC1(C)C2CCC13C(=O)C1OC3(C2)C2C(=O)c3ccccc3C(=O)C12 (centres undefined)
inactive: GI50 (786-0 renal) > 100 µM | GI50 (HS 578T breast) > 100 µM | GI50 (K-562 leukemia) > 100 µM | GI50 (MALME-3M melanoma) 39.7 µM | GI50 (NCI-H23 lung) > 100 µM | GI50 (NCI-H522 lung) > 100 µM | GI50 (RXF 393 renal) > 100 µM
> 100 µM: TGI (786-0 renal) | TGI (HS 578T breast) | TGI (K-562 leukemia) | TGI (MALME-3M melanoma) | TGI (NCI-H23 lung) | TGI (NCI-H522 lung) | TGI (RXF 393 renal)

N/N=C(/C(=O)Nc1cccc(Cl)c1)C(C(=O)c1ccc(O)cc1O)C1OC(=O)c2ccccc21 (centres undefined)
> 100 µM: TGI (786-0 renal) | TGI (EKVX NSCLC) | TGI (K-562 leukemia) | TGI (MALME-3M melanoma) | TGI (NCI-H23 lung) | TGI (NCI-H522 lung) | TGI (SW-620 colon)

CC(CN(C)C)/C(=N\Nc1ccccc1)c1ccccc1 (centres undefined)
0.527 µM: TGI (K-562 leukemia)
29.1 µM: TGI (MALME-3M melanoma)
65.4 µM: TGI (RXF 393 renal)
25.1 µM: TGI (NCI-H522 lung)
35.6 µM: TGI (EKVX NSCLC)
> 100 µM: TGI (SW-620 colon)
23.4 µM: TGI (NCI-H23 lung)
29.5 µM: TGI (786-0 renal)

CSc1nnc(CCC(=O)Nc2c(C)cccc2C)o1
> 100 µM: TGI (786-0 renal) | TGI (EKVX NSCLC) | TGI (K-562 leukemia) | TGI (MALME-3M melanoma) | TGI (NCI-H23 lung) | TGI (NCI-H522 lung) | TGI (RXF 393 renal) | TGI (SW-620 colon)

C=C/C=C/NC(=O)OCc1ccccc1
> 100 µM: TGI (786-0 renal) | TGI (EKVX NSCLC) | TGI (K-562 leukemia) | TGI (NCI-H522 lung) | TGI (RXF 393 renal) | TGI (SW-620 colon)

COc1cc2c(cc1OC)[C@H](C)N1CCc3cc(OC)c(OC)cc3[C@@H]1C2
> 100 µM: TGI (786-0 renal) | TGI (DU-145 prostate) | TGI (EKVX NSCLC) | TGI (HS 578T breast) | TGI (K-562 leukemia) | TGI (MALME-3M melanoma) | TGI (NCI-H23 lung) | TGI (NCI-H522 lung) | TGI (SW-620 colon)

CC(=O)Nc1ccc(S(=O)(=O)N/N=C/CN2C(=O)c3ccccc3C2=O)cc1
> 100 µM: TGI (786-0 renal) | TGI (EKVX NSCLC) | TGI (K-562 leukemia) | TGI (MALME-3M melanoma) | TGI (NCI-H23 lung) | TGI (NCI-H522 lung) | TGI (RXF 393 renal) | TGI (SW-620 colon)

O=[N+]([O-])c1ccc(-n2nnc(C3=NCCN3)c2-c2ccccc2)cc1
> 100 µM: TGI (786-0 renal) | TGI (EKVX NSCLC) | TGI (K-562 leukemia) | TGI (MALME-3M melanoma) | TGI (NCI-H23 lung) | TGI (NCI-H522 lung) | TGI (RXF 393 renal) | TGI (SW-620 colon)

C[C@H](OCc1ccccc1)C(=O)N1CCS(=O)(=O)N2CCC[C@@H]2C1=O
> 100 µM: TGI (786-0 renal) | TGI (EKVX NSCLC) | TGI (K-562 leukemia) | TGI (MALME-3M melanoma) | TGI (NCI-H23 lung) | TGI (NCI-H522 lung) | TGI (RXF 393 renal) | TGI (SW-620 colon)

O=C(O)CC[C@H](NC(=O)c1ccc(-n2nc3ccc(O)cc3nc2=O)cc1)C(=O)O
> 100 µM: TGI (786-0 renal) | TGI (EKVX NSCLC) | TGI (K-562 leukemia) | TGI (MALME-3M melanoma) | TGI (NCI-H23 lung) | TGI (NCI-H522 lung) | TGI (RXF 393 renal) | TGI (SW-620 colon)

C=C1CC2OC(=O)C(=C)C2C(O)C2C(=C)CCC12 (centres undefined)
45.1 µM: TGI (MALME-3M melanoma)
30.5 µM: TGI (K-562 leukemia)
13.8 µM: TGI (SW-620 colon)
17.7 µM: TGI (RXF 393 renal)
27 µM: TGI (NCI-H23 lung)
19.7 µM: TGI (EKVX NSCLC)
26.7 µM: TGI (786-0 renal)

OC1(C23CC4CC(CC(C4)C2)C3)CSCC1(O)C12CC3CC(CC(C3)C1)C2 (centres undefined)
> 100 µM: TGI (786-0 renal) | TGI (EKVX NSCLC) | TGI (K-562 leukemia) | TGI (MALME-3M melanoma) | TGI (NCI-H23 lung) | TGI (NCI-H522 lung) | TGI (SW-620 colon)

C/C(O)=C(/C=N/C(=S)Nc1ccc(S(N)(=O)=O)cc1)C(=O)Nc1ccccc1C
> 100 µM: TGI (786-0 renal) | TGI (DU-145 prostate) | TGI (EKVX NSCLC) | TGI (HS 578T breast) | TGI (K-562 leukemia) | TGI (NCI-H23 lung) | TGI (NCI-H522 lung) | TGI (RXF 393 renal) | TGI (SW-620 colon)

O=C1C(c2ccccc2)=C(O)c2cccc3cccc1c23
> 100 µM: TGI (786-0 renal) | TGI (EKVX NSCLC) | TGI (K-562 leukemia) | TGI (MALME-3M melanoma) | TGI (NCI-H23 lung) | TGI (NCI-H522 lung) | TGI (RXF 393 renal) | TGI (SW-620 colon)

COc1c(O)c2c3c(cc(C)cc3c1C(C)C)OC2
> 100 µM: TGI (786-0 renal) | TGI (EKVX NSCLC) | TGI (K-562 leukemia) | TGI (MALME-3M melanoma) | TGI (NCI-H23 lung) | TGI (NCI-H522 lung) | TGI (RXF 393 renal) | TGI (SW-620 colon)

COc1ccc2c(c1)C(=O)c1ccc(OC)cc1C2=S
> 100 µM: TGI (786-0 renal) | TGI (EKVX NSCLC) | TGI (K-562 leukemia) | TGI (MALME-3M melanoma) | TGI (NCI-H23 lung) | TGI (NCI-H522 lung) | TGI (RXF 393 renal) | TGI (SW-620 colon)

Cc1ccccc1C1OC(=O)c2ccc3ccccc3c21 (centres undefined)
17.5 µM: TGI (EKVX NSCLC)
20.7 µM: TGI (NCI-H23 lung)
18.9 µM: TGI (786-0 renal)
4.89 µM: TGI (NCI-H522 lung)
19.5 µM: TGI (K-562 leukemia)
21.7 µM: TGI (SW-620 colon)
6.95 µM: TGI (RXF 393 renal)
14 µM: TGI (MALME-3M melanoma)

CCOC(C[C@H](O[Si](C)(C)C(C)(C)C)[C@H]1COC(=S)S1)OCC
> 100 µM: TGI (786-0 renal) | TGI (EKVX NSCLC) | TGI (K-562 leukemia) | TGI (MALME-3M melanoma) | TGI (NCI-H23 lung) | TGI (SW-620 colon)
55.6 µM: TGI (NCI-H522 lung)

COc1cc2c[n+](C)c3c4cc(OC)c(OC(C)C)cc4ccc3c2cc1OC
> 100 µM: TGI (786-0 renal) | TGI (EKVX NSCLC) | TGI (K-562 leukemia) | TGI (MALME-3M melanoma) | TGI (NCI-H23 lung) | TGI (RXF 393 renal) | TGI (SW-620 colon)
69.3 µM: TGI (NCI-H522 lung)

O=C1CCCCC1S(=O)(=O)c1ccccc1 (centres undefined)
> 100 µM: TGI (786-0 renal) | TGI (EKVX NSCLC) | TGI (K-562 leukemia) | TGI (MALME-3M melanoma) | TGI (NCI-H23 lung) | TGI (NCI-H522 lung) | TGI (RXF 393 renal) | TGI (SW-620 colon)

O=S(=O)(/C=C/c1ccc(F)cc1)Cc1ccc(CS(=O)(=O)/C=C/c2ccc(F)cc2)cc1
> 100 µM: TGI (786-0 renal) | TGI (EKVX NSCLC) | TGI (K-562 leukemia) | TGI (MALME-3M melanoma) | TGI (NCI-H23 lung) | TGI (NCI-H522 lung) | TGI (RXF 393 renal) | TGI (SW-620 colon)

NNC(=O)C1CCC(=O)N1S(=O)(=O)c1ccccc1 (centres undefined)
> 100 µM: TGI (786-0 renal) | TGI (EKVX NSCLC) | TGI (K-562 leukemia) | TGI (MALME-3M melanoma) | TGI (NCI-H23 lung) | TGI (NCI-H522 lung) | TGI (RXF 393 renal) | TGI (SW-620 colon)
